Experimental data published in US20100075854A1, “HERBICIDE COMBINATION COMPRISING DIMETHOSXYTRIAZINYL-SUBSTITUTED DIFLUOROMETHANESULFONYLANILIDES” (Bayer CropScience AG, priority 2008, published 2010).
Like-named read-outs stand apart in the source and are kept apart here.

Columns and labels:
Test in all cases: Post-emergence action, greenhouse pot test, visual scoring
Format in all cases: in vivo
[1] = tested on: Alopecurus myosuroides (ALOMY); conditions: 504 h, ALOMY, 21 DAT, read-out: % activity found
Description: (§1) Seeds or rhizome pieces of mono- and dicotyledonous harmful and useful plants were placed in peat pots (diameter 4 cm) filled with sandy loam and then covered with soil. The pots were kept in a greenhouse under optimum conditions. In addition, harmful plants encountered in paddy rice cultivation were cultivated in pots with a water level 2 cm above the soil surface.
(§2) About three weeks after the start of the cultivation, the test plants were treated at the 2- to 3-leaf stage. The herbicides, formulated as powder or liquid concentrates, were, either alone or in the combinations according to the invention, sprayed in various dosages on to the green parts of the plants using an application rate of 600 l of water/ha (converted). For further cultivation of the plants, the pots were then again kept under optimum conditions in a greenhouse.
(§3) The visual scoring of the herbicidal effects was carried out in intervals up to 21 days after the treatment. Scoring was carried out in percent in comparison to the untreated control plants. 0%=no herbicidal activity, 100%=complete herbicidal activity=complete kill.
(§4) The percentages from the treatments with the herbicides alone (=individual application) and with the combinations according to the invention (=mixtures) were employed to calculate interactions using the method of Colby. When the observed efficacies of the mixtures exceed the formal sum of the values of the tests with individual applications, they also exceed the expected value according to Colby, which is calculated using the formula below (cf. S. R. Colby; in Weeds 15 (1967) pp. 20 to 22):
(§5) • A, B=activity of components A and B in percent at a dosage of a and b g of ai/ha (=gramm of active substance per hectare), respectively. • E=expected value in % at a dosage of a+b g of ai/ha.

Veronica persica (VERPE) = conditions: VERPE, read-out: % activity found; for inhibition at 12 g/ha: 12 g of ai/ha
Description: as §1, §2, §3, §4, §5

Oryza sativa (ORYSA) = conditions: ORYSA, read-out: % activity found; for inhibition at 12 g/ha: 12 g of ai/ha
Description: as §1, §2, §3, §4, §5

[2] = tested on: Fallopia (ex Polygonum) convolvulus (POLCO); conditions: POLCO, read-out: % activity found; for inhibition at 4 g/ha: 4 g of ai/ha; for inhibition at 12 g/ha: 12 g of ai/ha
Description: as §1, §2, §3, §4, §5

[3] = tested on: Abuthilon theophrasti (ABUTH); conditions: Abutilon theophrasti, ABUTH, read-out: % activity found; for inhibition at 4 g/ha: 4 g of ai/ha; for inhibition at 12 g/ha: 12 g of ai/ha
Description: as §1, §2, §3, §4, §5

Viola tricolor (VIOTR) = conditions: VIOTR, read-out: % activity found; for inhibition at 4 g/ha: 4 g of ai/ha; for inhibition at 12 g/ha: 12 g of ai/ha
Description: as §1, §2, §3, §4, §5

[4] = tested on: Pharbitis purpurea (PHBPU); conditions: Ipomoea purpurea, PHBPU, read-out: % activity found; for inhibition at 4 g/ha: 4 g of ai/ha; for inhibition at 12 g/ha: 12 g of ai/ha
Description: as §1, §2, §3, §4, §5

Zea mays (ZEAMX) = conditions: ZEAMX, read-out: % activity found; for inhibition at 4 g/ha: 4 g of ai/ha; for inhibition at 12 g/ha: 12 g of ai/ha
Description: as §1, §2, §3, §4, §5

[5] = tested on: Triticum aestivum (TRZAS); conditions: TRZAS, read-out: % activity found; for inhibition at 4 g/ha: 4 g of ai/ha; for inhibition at 12 g/ha: 12 g of ai/ha
Description: as §1, §2, §3, §4, §5

[6] = tested on: Lolium multiflorum (LOLMU); conditions: read-out: % activity found; for inhibition at 4 g/ha: 4 g of ai/ha; for inhibition at 12 g/ha: 12 g of ai/ha
Description: as §1, §2, §3, §4, §5

[7] = tested on: Cyperus esculentus (CYPES); conditions: CYPES, 21 DAT
Description: as §1, §2, §3, §4, §5

[8] = tested on: Matricaria inodora (MATIN); conditions: Tripleurospermum inodorum, MATIN, read-out: % activity found; for inhibition at 4 g/ha: 4 g of ai/ha
Description: as §1, §2, §3, §4, §5

Avena fatua (AVEFA) = conditions: AVEFA, read-out: % activity found; for inhibition at 4 g/ha: 4 g of ai/ha; for inhibition at 12 g/ha: 12 g of ai/ha
Description: as §1, §2, §3, §4, §5

[9] = tested on: Amaranthus retroflexus (AMARE); conditions: AMARE, read-out: % activity found; for inhibition at 12 g/ha: 12 g of ai/ha
Description: as §1, §2, §3, §4, §5

## COc1nc(OC)nc(C(=O)c2cccc(F)c2N(C)S(=O)(=O)C(F)F)n1 [A-1]
[1]; 4 g of ai/ha
  inhibition at 4 g/ha: 40%
[1]; 12 g of ai/ha
  inhibition at 12 g/ha: 50%
Veronica persica (VERPE); 240 h, 10 DAT
  inhibition at 12 g/ha: 60%
Veronica persica (VERPE); 504 h, 21 DAT, 4 g of ai/ha
  inhibition at 4 g/ha: 30%
Veronica persica (VERPE); 504 h, 21 DAT
  inhibition at 12 g/ha: 40%
Oryza sativa (ORYSA); 240 h, 10 DAT
  inhibition at 12 g/ha: 10%
Oryza sativa (ORYSA); 504 h, 21 DAT, 4 g of ai/ha
  inhibition at 4 g/ha: 0%
Oryza sativa (ORYSA); 504 h, 21 DAT
  inhibition at 12 g/ha: 10%
[2]; 240 h, 10 DAT
  inhibition at 4 g/ha: 70%
  inhibition at 12 g/ha: 70%
[2]; 504 h, 21 DAT
  inhibition at 4 g/ha: 75%
  inhibition at 12 g/ha: 70%
[3]; 240 h, 10 DAT
  inhibition at 4 g/ha: 70%
  inhibition at 12 g/ha: 70%
[3]; 504 h, 21 DAT
  inhibition at 4 g/ha: 85%
  inhibition at 12 g/ha: 85%
Viola tricolor (VIOTR); 240 h, 10 DAT
  inhibition at 4 g/ha: 20%
  inhibition at 12 g/ha: 20%
Viola tricolor (VIOTR); 504 h, 21 DAT
  inhibition at 4 g/ha: 0%
  inhibition at 12 g/ha: 10%
[4]; 240 h, 10 DAT
  inhibition at 4 g/ha: 60%
  inhibition at 12 g/ha: 60%
[4]; 504 h, 21 DAT
  inhibition at 4 g/ha: 60%
  inhibition at 12 g/ha: 65%
Zea mays (ZEAMX); 240 h, 10 DAT
  inhibition at 4 g/ha: 0%
  inhibition at 12 g/ha: 0%
Zea mays (ZEAMX); 504 h, 21 DAT
  inhibition at 4 g/ha: 0%
  inhibition at 12 g/ha: 0%
[5]; 240 h, 10 DAT
  inhibition at 4 g/ha: 0%
  inhibition at 12 g/ha: 0%
[5]; 504 h, 21 DAT
  inhibition at 4 g/ha: 0%
  inhibition at 12 g/ha: 0%
[6]; 240 h, 10 DAT
  inhibition at 4 g/ha: 0%
  inhibition at 12 g/ha: 10%
[6]; 504 h, 21 DAT
  inhibition at 4 g/ha: 0%
  inhibition at 12 g/ha: 10%
[7]; (5) dose of A-1 4, alone
  (7) % activity found: 80%
[7]; (5) dose of A-1 12, alone
  (7) % activity found: 80%
[7]; Cyperus esculentus, 504 h, 4 g of ai/ha, read-out: % activity found
  inhibition at 4 g/ha: 80%
[7]; Cyperus esculentus, 504 h, 12 g of ai/ha, read-out: % activity found
  inhibition at 12 g/ha: 80%
[8]; 240 h, 10 DAT
  inhibition at 4 g/ha: 60%
[8]; 504 h, 21 DAT
  inhibition at 4 g/ha: 50%
[8]; 504 h, 21 DAT, 12 g of ai/ha
  inhibition at 12 g/ha: 60%
Avena fatua (AVEFA); 240 h, 10 DAT
  inhibition at 4 g/ha: 40%
  inhibition at 12 g/ha: 50%
Avena fatua (AVEFA); 504 h, 21 DAT
  inhibition at 4 g/ha: 10%
  inhibition at 12 g/ha: 30%
[9]; 240 h, 10 DAT
  inhibition at 12 g/ha: 70%
[9]; 504 h, 21 DAT, 4 g of ai/ha
  inhibition at 4 g/ha: 70%
[9]; 504 h, 21 DAT
  inhibition at 12 g/ha: 75%
